Test system: Lox-IMVI melanoma cell line
Test: Lox-IMVI anti-proliferative assay (growth inhibition, Cell Titer-Glo)
Assay type: cell-based, human
Conditions: Homo sapiens; IC50 activity level in the cell-based Lox-IMVI anti-proliferative assay; read-out: Activity
Protocol: Determination of the Growth Inhibitory Effect of Aminopurine Compounds. The Lox-IMVI melanoma cell line (Source: NCI-DCTD, catalog No. 0507283) was maintained and tested in RPMI+10% FBS. The seeding density for the cell line was optimized to ensure assay linearity in 384-well plates.
Increasing concentrations of Aminopurine Compound (0.5 nM to 10 μM) were spotted in a 10-point serial dilution fashion (3-fold dilution) in duplicate within the plate via an acoustic dispenser (EDC ATS-100) into an empty 384-well plate. The dimethyl sulfoxide (DMSO) concentration was kept constant for a final assay concentration of 0.2% DMSO. Prior to testing, cells were grown and expanded in culture flasks to provide sufficient amounts of starting material. Cells were then diluted to their desired densities and added directly to the compound-spotted 384-well plates. Cells were allowed to grow for 72 hours in 5% CO2 at 37° C. At the time when exposure of cells to compound began (t0), initial cell number was assessed via a viability assay (Cell Titer-Glo) by quantifying the level of luminescence generated by adenosine-5′-triphosphate (ATP) present in viable cells. After 72 hours, cell viability of compound-treated cells was assessed via Cell Titer-Glo Luminescent Cell Viability Assay (Promega Corporation, Madison, Wis.) and read for luminescence.
All data was normalized and represented as a percentage of the DMSO-treated control cells after 72 h. Results were expressed as a IC50 value, which is the compound concentration required to inhibit 50% of the untreated control cells during the 72 hours of treatment.
A Four Parameter Logistic Model (Sigmoidal Dose-Response Model) was used to determine the compound's IC50. y=(A+((B−A)/(1+((C/x)^D))))
wherein: • A=YMin • B=YMax • C=EC50 • D=Hill Slope • IC50 is the compound concentration when Y=50% of DMSO control • Y=Luminescence unit
All inhibition curves were processed and evaluated using XLFit and Activity Base (IDBS).

Row | Structure (SMILES) | IC50 [nM]
1 | Cc1cc(Cl)c(Nc2nc3cnc(NC4CCOCC4)nc3n2[C@H]2CC[C@@H](C(N)=O)CC2)cc1Cl [Example 80, (1s,4s)-4-(8-(2,5-dichloro-4-methylphenylamino)-2-(tetrahydro-2H-pyran-4-ylamino)-9H-purin-9-yl)cyclohexanecarboxamide] | 500 to 1000
2 | NC(=O)[C@H]1CC[C@@H](n2c(Nc3ccc(F)c(Cl)c3Cl)nc3cnc(NC4CCOCC4)nc32)CC1 [Example 81, (1s,4s)-4-(8-(2,3-dichloro-4-fluorophenylamino)-2-(tetrahydro-2H-pyran-4-ylamino)-9H-purin-9-yl)cyclohexanecarboxamide] | > 1000
3 | NC(=O)[C@H]1CC[C@@H](n2c(Nc3ccc(Cl)c(F)c3Cl)nc3cnc(NC4CCOCC4)nc32)CC1 [Example 82, (1s,4s)-4-(8-(2,4-dichloro-3-fluorophenylamino)-2-(tetrahydro-2H-pyran-4-ylamino)-9H-purin-9-yl)cyclohexanecarboxamide] | > 1000
4 | Cc1ccc(Nc2nc3cnc(NC4CCOCC4)nc3n2[C@H]2CC[C@@H](C(N)=O)CC2)c(F)c1F [Example 83, (1s,4s)-4-(8-(2,3-difluoro-4-methylphenylamino)-2-(tetrahydro-2H-pyran-4-ylamino)-9H-purin-9-yl)cyclohexanecarboxamide] | 500 to 1000
5 | Cc1ccc(Nc2nc3cnc(NC4CCOCC4)nc3n2[C@H]2CC[C@@H](C(N)=O)CC2)c(Cl)c1F [Example 84, (1s,4s)-4-(8-(2-chloro-3-fluoro-4-methylphenylamino)-2-(tetrahydro-2H-pyran-4-ylamino)-9H-purin-9-yl)cyclohexanecarboxamide] | 500 to 1000
6 | NC(=O)[C@H]1CC[C@@H](n2c(Nc3c(Cl)cc(Cl)cc3Cl)nc3cnc(N[C@H]4CCOC4)nc32)CC1 [Example 87, (1R,4s)-4-(2-((S)-tetrahydrofuran-3-ylamino)-8-(2,4,6-trichlorophenylamino)-9H-purin-9-yl)cyclohexanecarboxamide] | 500 to 1000
7 | NC(=O)[C@H]1CC[C@@H](n2c(Nc3c(F)ccc(F)c3Cl)nc3cnc(NC4CCOCC4)nc32)CC1 [Example 90, (1s,4s)-4-(8-(2-chloro-3,6-difluorophenylamino)-2-(tetrahydro-2H-pyran-4-ylamino)-9H-purin-9-yl)cyclohexanecarboxamide] | 250 to 500

Other lines, results leading:

Row | IC50 [nM] | Structure (SMILES)
8 | > 1000 | Cc1ccc(Nc2nc3cnc(NC4CCOCC4)nc3n2[C@H]2CC[C@@H](C(N)=O)CC2)c(Cl)c1Cl [Example 85, (1s,4s)-4-(8-(2,3-dichloro-4-methylphenylamino)-2-(tetrahydro-2H-pyran-4-ylamino)-9H-purin-9-yl)cyclohexanecarboxamide]
9 | > 1000 | Cc1cc(F)cc(F)c1Nc1nc2cnc(NC3CCOCC3)nc2n1[C@H]1CC[C@@H](C(N)=O)CC1 [Example 86, (1s,4s)-4-(8-(2,4-difluoro-6-methylphenylamino)-2-(tetrahydro-2H-pyran-4-ylamino)-9H-purin-9-yl)cyclohexanecarboxamide]
10 | 500 to 1000 | NC(=O)[C@H]1CC[C@@H](n2c(Nc3c(Cl)cc(Cl)cc3Cl)nc3cnc(NC4CCC(F)(F)CC4)nc32)CC1 [Example 88, (1s,4s)-4-(2-(4,4-difluorocyclohexylamino)-8-(2,4,6-trichlorophenylamino)-9H-purin-9-yl)cyclohexanecarboxamide]
11 | > 1000 | Cc1c(Nc2nc3cnc(NC4CCOCC4)nc3n2[C@H]2CC[C@@H](C(N)=O)CC2)ccc(Cl)c1F [Example 89, (1s,4s)-4-(8-(4-chloro-3-fluoro-2-methylphenylamino)-2-(tetrahydro-2H-pyran-4-ylamino)-9H-purin-9-yl)cyclohexanecarboxamide]
12 | > 1000 | Cc1ccc(F)c(Nc2nc3cnc(NC4CCOCC4)nc3n2[C@H]2CC[C@@H](C(N)=O)CC2)c1Cl [Example 91, (1s,4s)-4-(8-(2-chloro-6-fluoro-3-methylphenylamino)-2-(tetrahydro-2H-pyran-4-ylamino)-9H-purin-9-yl)cyclohexanecarboxamide]
